Assays:
Assay in all cases: relative viability (nuclei count vs DMSO), 5 days (fraction); higher = more cells survive
AZD8055 + Pemetrexed = compound: COc1ccc(-c2ccc3c(N4CCOC[C@@H]4C)nc(N4CCOC[C@@H]4C)nc3n2)cc1CO [AZD8055] + Nc1nc2[nH]cc(CCc3ccc(C(=O)N[C@@H](CCC(=O)O)C(=O)O)cc3)c2c(=O)[nH]1 [Pemetrexed] (partner 0.2 µM)
Summary of the method: (§1)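 Relative viability divides the nuclei count in treated wells by that in vehicle wells. Lung cancer cell lines were seeded in 1536-well plates, dosed by pin tool the next day, and fixed and stained after 5 days in one step with final 0.05% Triton X-100, 1% formaldehyde and 1 ug/ml Hoechst. Dosing was a single drug or a fixed anchor-drug dose plus five library-drug doses (not always all listed) in √10 steps, and values are medians of duplicate plates imaged at 4×.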

AZD8055 + Navitoclax = compound: COc1ccc(-c2ccc3c(N4CCOC[C@@H]4C)nc(N4CCOC[C@@H]4C)nc3n2)cc1CO [AZD8055] + CC1(C)CCC(c2ccc(Cl)cc2)=C(CN2CCN(c3ccc(C(=O)NS(=O)(=O)c4ccc(N[C@H](CCN5CCOCC5)CSc5ccccc5)c(S(=O)(=O)C(F)(F)F)c4)cc3)CC2)C1 [Navitoclax] (partner 0.5 µM)
Summary of the method: as §1

AZD8055 + Linsitinib = compound: COc1ccc(-c2ccc3c(N4CCOC[C@@H]4C)nc(N4CCOC[C@@H]4C)nc3n2)cc1CO [AZD8055] + C[C@]1(O)C[C@@H](c2nc(-c3ccc4ccc(-c5ccccc5)nc4c3)c3c(N)nccn32)C1 [Linsitinib] (partner 1 µM)
Summary of the method: as §1

AZD8055 + Vorinostat = compound: COc1ccc(-c2ccc3c(N4CCOC[C@@H]4C)nc(N4CCOC[C@@H]4C)nc3n2)cc1CO [AZD8055] + O=C(CCCCCCC(=O)Nc1ccccc1)NO [Vorinostat] (partner 1 µM)
Summary of the method: as §1

Cell Line	relative viability (AZD8055 + Pemetrexed; first compound 0.01 µM)	relative viability (AZD8055 + Pemetrexed; first compound 0.03162 µM)	relative viability (AZD8055 + Pemetrexed; first compound 0.1 µM)	relative viability (AZD8055 + Pemetrexed; first compound 0.3162 µM)	relative viability (AZD8055 + Pemetrexed; first compound 1 µM)	relative viability (AZD8055 + Navitoclax; first compound 0.01 µM)	relative viability (AZD8055 + Navitoclax; first compound 0.03162 µM)	relative viability (AZD8055 + Navitoclax; first compound 0.1 µM)	relative viability (AZD8055 + Navitoclax; first compound 0.3162 µM)	relative viability (AZD8055 + Navitoclax; first compound 1 µM)	relative viability (AZD8055 + Linsitinib; first compound 0.01 µM)	relative viability (AZD8055 + Linsitinib; first compound 0.03162 µM)	relative viability (AZD8055 + Linsitinib; first compound 0.1 µM)	relative viability (AZD8055 + Linsitinib; first compound 0.3162 µM)	relative viability (AZD8055 + Linsitinib; first compound 1 µM)	relative viability (AZD8055 + Vorinostat; first compound 0.01 µM)	relative viability (AZD8055 + Vorinostat; first compound 0.03162 µM)	relative viability (AZD8055 + Vorinostat; first compound 0.1 µM)	relative viability (AZD8055 + Vorinostat; first compound 0.3162 µM)	relative viability (AZD8055 + Vorinostat; first compound 1 µM)
NCI-H1666	0.917	0.878	0.895	0.751	0.716	0.878	0.819	0.731	0.561	0.417	0.802	0.666	0.417	0.552	0.375	0.933	1.07	0.892	0.856	0.736
NCI-H1734	0.45	0.375	0.41	0.385	0.323	1.04	0.742	0.472	0.316	0.173	0.857	0.638	0.457	0.289	0.262	0.822	0.571	0.506	0.303	0.246
NCI-H1755	0.462	0.423	0.384	0.424	0.461	0.953	0.71	0.687	0.296	0.307	0.95	0.867	0.764	0.474	0.403	0.64	0.613	0.57	0.423	0.366
NCI-H1793	0.721	0.376	0.268	0.184	0.225	0.363	0.288	0.205	0.229	0.163	0.539	0.315	0.224	0.197	0.18	0.567	0.387	0.271	0.188	0.224
NCI-H1915	0.52	0.5	0.507	0.419	0.372	0.853	0.769	0.81	0.757	0.509	1.19	0.977	1.08	0.837	0.558	0.486	0.36	0.419	0.284	0.246
NCI-H1944	0.57	0.568	0.454	0.286	0.294	1.05	0.929	0.851	0.457	0.316	1.13	0.843	0.693	0.477	0.335	0.518	0.431	0.422	0.223	0.207
NCI-H1975	0.311	0.301	0.264	0.206	0.167	0.967	0.91	0.802	0.279	0.247	0.897	0.581	0.469	0.265	0.219	0.749	0.623	0.448	0.282	0.263
NCI-H1993	0.519	0.542	0.459	0.434	0.473	0.785	0.681	0.649	0.665	0.56	0.721	0.593	0.688	0.702	0.695	0.55	0.474	0.358	0.287	0.407

Reference: the supplement of paper PMC10307832
